Active and inactive are the calls of the source. No cut-off for these calls is given here.
Tested on: Umbelopsis ramanniana
Assay: Antimicrobial activity against Mortierella ramanniana
Type: functional, organism-based

Row | SMILES | Activity
1 | C#CC(O)/C=C/CCCCCC#CC/C=C\CCCCCCCCCCC/C=C\C#CC(=O)O (configuration not stated) | Active
2 | C#CC(O)/C=C/CCCCCC#CC/C=C\CCCCCCCCCCC/C=C/C#CC(=O)O (configuration not stated) | Active
